Measured values: ChEMBL document CHEMBL1909046, “DrugMatrix in vitro pharmacology data”

Key:
Cytochrome P450 2A6 = target: T1, Cytochrome P450 2A6 (Homo sapiens, UniProt P11509); settings: bti-tn-5b1-4; note: in other assays of this panel Not Active means under 50% inhibition at 10 µM
T1 sequence (P11509 whole entry): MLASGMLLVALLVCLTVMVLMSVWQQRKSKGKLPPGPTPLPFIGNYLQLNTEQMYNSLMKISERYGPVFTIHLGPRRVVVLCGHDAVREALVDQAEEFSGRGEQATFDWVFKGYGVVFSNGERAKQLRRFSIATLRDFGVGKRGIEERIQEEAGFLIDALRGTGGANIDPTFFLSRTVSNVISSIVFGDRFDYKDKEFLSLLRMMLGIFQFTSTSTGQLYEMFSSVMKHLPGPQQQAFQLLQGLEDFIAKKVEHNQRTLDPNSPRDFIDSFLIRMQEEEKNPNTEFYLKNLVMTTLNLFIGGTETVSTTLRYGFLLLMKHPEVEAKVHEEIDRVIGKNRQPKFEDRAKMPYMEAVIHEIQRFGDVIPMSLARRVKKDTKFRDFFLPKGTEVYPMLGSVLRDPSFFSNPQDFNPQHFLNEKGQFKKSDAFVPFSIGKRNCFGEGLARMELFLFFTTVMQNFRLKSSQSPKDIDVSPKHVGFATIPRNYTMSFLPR

Endothelin-1 receptor = target: T2, Endothelin-1 receptor (Homo sapiens, UniProt P25101); assay type: cell membranes, Membrane; settings: cho-k1; note: in other assays of this panel Not Active means under 50% inhibition at 10 µM
T2 sequence (P25101 whole entry): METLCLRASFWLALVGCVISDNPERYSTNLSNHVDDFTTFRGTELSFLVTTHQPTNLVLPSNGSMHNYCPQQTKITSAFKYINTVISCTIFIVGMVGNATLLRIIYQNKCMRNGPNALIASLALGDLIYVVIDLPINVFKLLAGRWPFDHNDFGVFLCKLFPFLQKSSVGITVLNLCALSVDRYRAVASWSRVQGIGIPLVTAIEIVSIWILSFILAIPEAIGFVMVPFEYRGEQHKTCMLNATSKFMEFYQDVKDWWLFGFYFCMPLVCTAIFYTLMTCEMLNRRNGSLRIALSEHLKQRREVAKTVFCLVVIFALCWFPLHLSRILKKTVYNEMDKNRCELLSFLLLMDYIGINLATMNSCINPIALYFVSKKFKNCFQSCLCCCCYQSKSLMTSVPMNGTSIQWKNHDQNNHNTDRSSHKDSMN

[1] = target: Protein phosphatase 3 catalytic subunit alpha (Homo sapiens, UniProt Q08209); parameters: species or system Escherichia coli;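 note: inhibition of calcineurin (PP2B) enzyme activity, measured with DiFMUP as the substrate; in other assays of this panel Not Active means under 50% inhibition at 10 µM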
[2] = target: T3, Cysteinyl leukotriene receptor 1 (Homo sapiens, UniProt Q9Y271); assay type: cell membranes, CHO-K1, Membrane; settings: cho-k1; note: in other assays of this panel Not Active means under 50% inhibition at 10 µM
T3 sequence (Q9Y271 whole entry): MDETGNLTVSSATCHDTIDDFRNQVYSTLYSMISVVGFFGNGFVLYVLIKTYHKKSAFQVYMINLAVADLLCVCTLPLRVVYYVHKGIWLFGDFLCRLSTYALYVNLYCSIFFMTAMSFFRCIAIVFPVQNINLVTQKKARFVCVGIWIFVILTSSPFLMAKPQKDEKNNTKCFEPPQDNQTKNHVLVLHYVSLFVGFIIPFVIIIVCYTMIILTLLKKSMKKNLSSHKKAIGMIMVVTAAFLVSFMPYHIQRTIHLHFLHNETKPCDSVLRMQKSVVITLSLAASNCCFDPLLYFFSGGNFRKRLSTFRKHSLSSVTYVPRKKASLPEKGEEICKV

Interstitial collagenase = target: T4, Interstitial collagenase (Homo sapiens, UniProt P03956); assay type: tissue-based, Rheumatoid synovial fibroblasts
T4 sequence (P03956 whole entry): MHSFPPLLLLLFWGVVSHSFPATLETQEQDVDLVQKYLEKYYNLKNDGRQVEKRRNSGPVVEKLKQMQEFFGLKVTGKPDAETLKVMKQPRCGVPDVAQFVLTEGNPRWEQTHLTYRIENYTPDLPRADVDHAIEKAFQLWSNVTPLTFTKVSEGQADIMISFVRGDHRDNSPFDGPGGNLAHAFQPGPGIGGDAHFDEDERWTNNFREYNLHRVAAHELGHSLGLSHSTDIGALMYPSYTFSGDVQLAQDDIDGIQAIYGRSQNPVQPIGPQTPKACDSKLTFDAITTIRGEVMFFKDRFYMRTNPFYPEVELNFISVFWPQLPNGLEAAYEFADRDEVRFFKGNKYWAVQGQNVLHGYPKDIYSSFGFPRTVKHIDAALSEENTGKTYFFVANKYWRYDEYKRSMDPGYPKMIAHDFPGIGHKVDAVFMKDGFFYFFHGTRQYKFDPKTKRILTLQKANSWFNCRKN

[3] = DRUGMATRIX: Imidazoline I2, Central radioligand binding (ligand: [3H] Idazoxan); assay type: cell membranes, Rattus norvegicus, Wistar, Cerebral cortex, Membrane; settings: Not Active = under 50% inhibition at 10 µM
[4] = target: T5, 3-hydroxy-3-methylglutaryl-coenzyme A reductase (Homo sapiens, UniProt P04035); parameters: species or system Escherichia coli
T5 sequence (P04035 whole entry): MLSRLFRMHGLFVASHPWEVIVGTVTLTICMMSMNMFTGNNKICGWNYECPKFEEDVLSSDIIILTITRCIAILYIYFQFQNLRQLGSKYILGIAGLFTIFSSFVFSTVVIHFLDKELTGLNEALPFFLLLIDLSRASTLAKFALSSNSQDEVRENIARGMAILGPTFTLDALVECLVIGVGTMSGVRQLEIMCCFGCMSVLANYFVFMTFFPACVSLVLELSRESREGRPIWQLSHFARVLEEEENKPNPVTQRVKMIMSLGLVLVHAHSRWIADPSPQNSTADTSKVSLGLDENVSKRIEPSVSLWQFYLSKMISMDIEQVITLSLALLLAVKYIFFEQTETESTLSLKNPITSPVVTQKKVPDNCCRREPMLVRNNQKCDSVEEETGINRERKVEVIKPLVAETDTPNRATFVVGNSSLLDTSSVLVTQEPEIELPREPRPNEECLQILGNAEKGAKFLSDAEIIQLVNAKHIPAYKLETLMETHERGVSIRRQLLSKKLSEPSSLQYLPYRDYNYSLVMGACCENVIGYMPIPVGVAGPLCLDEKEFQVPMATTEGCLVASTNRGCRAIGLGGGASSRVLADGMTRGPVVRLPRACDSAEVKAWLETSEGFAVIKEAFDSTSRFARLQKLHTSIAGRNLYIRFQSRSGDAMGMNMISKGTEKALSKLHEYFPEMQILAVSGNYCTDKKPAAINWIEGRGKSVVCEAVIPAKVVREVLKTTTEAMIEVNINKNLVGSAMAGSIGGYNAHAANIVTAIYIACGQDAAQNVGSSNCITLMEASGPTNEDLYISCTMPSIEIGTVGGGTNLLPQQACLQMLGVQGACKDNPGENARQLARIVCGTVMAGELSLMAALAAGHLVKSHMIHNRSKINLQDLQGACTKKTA

CC1CN(c2cc3c(cc2F)c(=O)c(C(=O)O)cn3-c2ccc(F)cc2F)CCN1 (stereo not drawn) [TEMAFLOXACIN]
Not Active: IC50 (Cytochrome P450 2A6) | Ki (Cytochrome P450 2A6) | IC50 (Endothelin-1 receptor) | IC50 [1] | IC50 [2] | IC50 (Interstitial collagenase) | IC50 [3] | Ki [3] | IC50 [4]

CC(C)(C)NCC(O)c1cc(O)cc(O)c1 (stereo not drawn) [TERBUTALINE]
Not Active: IC50 (Cytochrome P450 2A6) | Ki (Cytochrome P450 2A6) | IC50 (Endothelin-1 receptor) | IC50 [1] | IC50 [2] | IC50 (Interstitial collagenase) | IC50 [3] | Ki [3] | IC50 [4]

CN(C)[C@@H]1C(O)=C(C(N)=O)C(=O)[C@@]2(O)C(O)=C3C(=O)c4c(O)cccc4[C@@](C)(O)[C@H]3C[C@@H]12 [TETRACYCLINE]
Not Active: IC50 (Cytochrome P450 2A6) | Ki (Cytochrome P450 2A6) | IC50 (Endothelin-1 receptor) | IC50 [1] | IC50 [2] | IC50 (Interstitial collagenase) | IC50 [3] | Ki [3] | IC50 [4]

c1ccc2[nH]c(-c3cscn3)nc2c1 [THIABENDAZOLE]
Not Active: IC50 (Cytochrome P450 2A6) | Ki (Cytochrome P450 2A6) | IC50 (Endothelin-1 receptor) | IC50 [1] | IC50 [2] | IC50 (Interstitial collagenase) | IC50 [3] | Ki [3] | IC50 [4]

Cc1ccc(C(=O)C(C)CN2CCCCC2)cc1 (stereo not drawn) [TOLPERISONE]
Not Active: IC50 (Cytochrome P450 2A6) | Ki (Cytochrome P450 2A6) | IC50 (Endothelin-1 receptor) | IC50 [1] | IC50 [2] | IC50 (Interstitial collagenase) | IC50 [3] | Ki [3] | IC50 [4]

NC(CO)(CO)CO [TROMETHAMINE]
Not Active: IC50 (Cytochrome P450 2A6) | Ki (Cytochrome P450 2A6) | IC50 (Endothelin-1 receptor) | IC50 [1] | IC50 [2] | IC50 (Interstitial collagenase) | IC50 [3] | Ki [3] | IC50 [4]

CN1[C@@H]2CC[C@H]1C[C@@H](OC(=O)c1c[nH]c3ccccc13)C2 [TROPISETRON]
Not Active: IC50 (Cytochrome P450 2A6) | Ki (Cytochrome P450 2A6) | IC50 (Endothelin-1 receptor) | IC50 [1] | IC50 [2] | IC50 (Interstitial collagenase) | IC50 [3] | Ki [3] | IC50 [4]

COc1cc(C(=O)NC2CCCNC2)cc(OC)c1OC (stereo not drawn) [TROXIPIDE]
Not Active: IC50 (Cytochrome P450 2A6) | Ki (Cytochrome P450 2A6) | IC50 (Endothelin-1 receptor) | IC50 [1] | IC50 [2] | IC50 (Interstitial collagenase) | IC50 [3] | Ki [3] | IC50 [4]

CC(C)[C@H](N)C(=O)OCCOCn1cnc2c(=O)nc(N)[nH]c21 [VALACYCLOVIR]
Not Active: IC50 (Cytochrome P450 2A6) | Ki (Cytochrome P450 2A6) | IC50 (Endothelin-1 receptor) | IC50 [1] | IC50 [2] | IC50 (Interstitial collagenase) | IC50 [3] | Ki [3] | IC50 [4]

CN[C@H](CC(C)C)C(=O)N[C@H]1C(=O)N[C@@H](CC(N)=O)C(=O)N[C@H]2C(=O)N[C@H]3C(=O)N[C@H](C(=O)N[C@H](C(=O)O)c4cc(O)cc(O)c4-c4cc3ccc4O)[C@H](O)c3ccc(c(Cl)c3)Oc3cc2cc(c3O[C@@H]2O[C@H](CO)[C@@H](O)[C@H](O)[C@H]2O[C@H]2C[C@](C)(N)[C@H](O)[C@H](C)O2)Oc2ccc(cc2Cl)[C@H]1O [VANCOMYCIN]
Not Active: IC50 (Cytochrome P450 2A6) | Ki (Cytochrome P450 2A6) | IC50 (Endothelin-1 receptor) | IC50 [1] | IC50 [2] | IC50 (Interstitial collagenase) | IC50 [3] | Ki [3] | IC50 [4]

COc1ccc(C(CN(C)C)C2(O)CCCCC2)cc1 (stereo not drawn) [VENLAFAXINE]
Not Active: IC50 (Cytochrome P450 2A6) | Ki (Cytochrome P450 2A6) | IC50 (Endothelin-1 receptor) | IC50 [1] | IC50 [2] | IC50 (Interstitial collagenase) | IC50 [3] | Ki [3] | IC50 [4]

IVERMECTIN
Not Active: IC50 (Cytochrome P450 2A6) | Ki (Cytochrome P450 2A6) | IC50 (Endothelin-1 receptor) | Ki (Endothelin-1 receptor) | IC50 [1] | Ki [1] | IC50 [2] | Ki [2] | IC50 (Interstitial collagenase) | Ki (Interstitial collagenase) | IC50 [3] | Ki [3] | IC50 [4] | Ki [4]
